Measured values taken from patent US20230181485A1, “Uses and Formulations of Cannabinoids” (priority 2020, published 2023).
Like-named read-outs stand apart in the source and are kept apart here.

Key:
[1] = test system: IL-6 secretion; conditions: majority of cellular models; cited from earlier work
[2] = test system: CD83 dendritic cell activation marker; conditions: dendritic cells from individuals with HIV infection; cited from earlier work
[3] = test system: human neutrophils; conditions: cited from earlier work
[4] = test system: human mononuclear cells; conditions: nanomolar or micromolar concentrations; cited from earlier work
[5] = healthy rats, cited from earlier work
[6] = test system: ischemia-reperfusion-induced kidney injury; conditions: 10 mg/kg after induced kidney injury; cited from earlier work
[7] = cited from earlier work
[8] = mice; 120 mg/kg single dose; cited from earlier work
[9] = test system: chemically induced acute hepatitis; conditions: 25 mg/kg; cited from earlier work
[10] = test system: SARS-CoV-2 virus (isolate BetaCoV/Germany/BavPat1/2020 p. 1); test: antiviral assay, Vero E6 cells with SARS-CoV-2, focus forming units; format: cell-based; conditions: 24 h
[11] = test system: LPS-induced acute lung injury; conditions: cited from earlier work
[12] = systemic exposure after i.p. and oral application in mice and rats (Deiana et al.); format: in vivo; conditions: 20 mg/kg, assuming dose-proportional plasma concentrations
Description: A comparative investigation for systemic exposure after i.p. and oral application of CBD in mice and rats has shown that 120 mg/kg as a single dose leads to a maximum plasma concentration of 14,000 ng/ml in mice (S. Deiana et al. (2012). Plasma and brain pharmacokinetic profile of cannabidiol (CBD), cannabidivarine (CBDV), Delta(9)-tetrahydrocannabivarin (THCV) and cannabigerol (CBG) in rats and mice following oral and intraperitoneal administration and CBD action on obsessive-compulsive behaviour. Psychopharmacology (Berl) 219(3): 859-73).

[13] = test system: activated memory T cell line; conditions: 1-5 μmol/l, cited from earlier work
[14] = test system: LPS-induced acute lung injury; conditions: 20 mg/kg, 6 h after LPS; cited from earlier work
[15] = test system: microglial cells; conditions: 1-16 μmol/l; cited from earlier work
[16] = target: T1, IL-6 receptor (Homo sapiens, UniProt P08887); conditions: preliminary clinical data; cited from earlier work
T1 construct: host or cells: patients (in vivo)
T1 sequence (P08887 20-468): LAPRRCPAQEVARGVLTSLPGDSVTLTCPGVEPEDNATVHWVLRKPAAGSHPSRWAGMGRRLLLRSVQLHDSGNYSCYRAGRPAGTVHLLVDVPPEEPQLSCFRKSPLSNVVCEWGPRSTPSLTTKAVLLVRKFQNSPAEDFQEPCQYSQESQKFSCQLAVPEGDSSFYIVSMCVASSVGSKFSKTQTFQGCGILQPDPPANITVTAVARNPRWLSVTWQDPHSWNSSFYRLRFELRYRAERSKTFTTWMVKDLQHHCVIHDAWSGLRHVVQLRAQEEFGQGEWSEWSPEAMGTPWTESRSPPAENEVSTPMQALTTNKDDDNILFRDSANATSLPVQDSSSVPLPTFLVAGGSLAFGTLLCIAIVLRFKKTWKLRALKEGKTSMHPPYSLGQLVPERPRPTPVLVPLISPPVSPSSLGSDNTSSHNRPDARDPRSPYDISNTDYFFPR

In the case of `C=C(C)[C@@H]1CCC(C)=C[C@H]1c1c(O)cc(CCCCC)cc1O` [CBD, 2-[(1R,6R)-3-methyl-6-(1-methylethenyl)-2-cyclohexen-1-yl]-5-pentyl-1,3-benzenediol], the “effective concentration for suppressive effect on IL-6 secretion” value [1] is given as about 5 µM, the “CD83 dendritic cell activation marker” value [2] is given as “suppresses” and the “migration of human neutrophils” value [3] is given as “inhibits”. The “release of pro-inflammatory cytokines” value [4] was “suppressed”, the “numbers of NK cells and NKT cells” value ([5]; 2.5 mg/kg per day) was “increased” and the “numbers of NK cells and NKT cells” value ([5]; 5 mg/kg per day) was “not affected”. The “number of T cells including T helper cells and cytotoxic T cells and of B cells” value ([5]; daily 5 mg/kg) was “significantly reduced”, the “effect on induced kidney injury (Treg17/Th17 levels)” value [6] was “renoprotective” and the “log P” value [7] was “about 6.1”. For the same compound, the maximum plasma concentration [8] was 14,000 ng/ml, the “expression of MDSCs” value [9] was “induces” and the “pro-inflammatory cytokines such as IL-2, TNF-α, and IL-6” value [9] was “reduction”. The “FFU values (viral activity of SARS-CoV-2 in vitro)” value ([10]; 0.25-5 μM) was “reduce the FFU values in a dose dependent manner”, the IC50 ([10]; Severe acute respiratory syndrome coronavirus 2, Vero C1008, Vero E6 cells, 5 μM values excluded, read-out: IC50 of inhibition of viral activity) was 789 nM and the “number of leukocytes including macrophages and neutrophils in bronchoalveolar lavage fluid” value ([11]; 20 mg/kg, mice after LPS-induced lung inflammation) was “decreases”. For the same compound, the “total leukocytes migration, myeloperoxidase activity, pro-inflammatory cytokine production including TNF-α and IL-6 and vascular permeability” value ([11]; 0.3-80 mg/kg intraperitoneal, 60 minutes before LPS instillation) was “significantly decreased”, the “dose at which effects reached a nearly maximum extent” value ([11]; prophylactic application, intraperitoneal) was 20 mg/kg and the target peak exposure [12] was 2,300 ng/ml. For the same compound, the “autoantigen-specific Th17 cell phenotype (IL-17)” value ([13]; dose-dependently) was “reduced”, the “IL-6 production and secretion” value [13] was “decreased” and the “production of IL-10” value [13] was “increased”. The “mechanical lung function, leukocyte migration, myeloperoxidase activity, vascular permeability, cytokines/chemokines” value [14] was “improved mechanical lung function” and the “apoptosis in microglial cells” value [15] was “induces apoptosis”.

For “tocilizumab: humanized monoclonal antibody against the IL-6 receptor”, the “clinical effect in patients with severe SARS-CoV-2 pneumonia” value [16] is listed as “beneficial effects”.
